Reference: publication PMC12288536, “Development of an atrazine immunoassay based on highly catalytically active Au@PtNPs and specific nanobody” (Research Square, 2025)
One block for each compound: values may come before it.

Legend:
Au@PtNPs-nanobody probe = assay: dc-ELISA based on Au@PtNPs-nanobody probe (direct competitive), incl. matrix effect evaluation; type: binding, alpaca; settings: for CR% (Au@PtNPs-nanobody): cross-reaction = IC50(atrazine)/IC50(analog); for IC50 (Au@PtNPs-nanobody): optimal conditions, 1×PBS containing 5% methanol
Method: The sodium chloride interference method was used to determine the optimal conditions for coupling. Adjust the Au@PtNPs-145 nm (10 mL) to the optimal pH with 0.1 M K2CO3, then the optimal amount of nanobody and BSA (0.1 g) were added dropwise to the solution and stirred for 30 minutes. PEG20000 (0.05 g) was then added to the above solution and incubated at 4°C overnight after stirring for 30 minutes. The probe was purified by fractionation and centrifugation at 4°C, and the precipitate was collected and re-dissolved in 1 mL of probe diluent (pH 7.2, PBS buffer containing 1% sucrose, 0.1% BSA, 0.1% Tween 20 and 0.1% alginate) at 4°C for storage and further use.
Au@PtNPs-nanobody was used to develop a new dc-ELISA, and the optimal concentrations of probe and coating antigen were confirmed by the checkerboard method, and the sensitivity of dc-ELISA was evaluated under optimal conditions. The cross-reactivity of the dc-ELISA to atrazine analogs was also evaluated to compare with the specificity of ic-ELISA.
Tap water, river water and soil without atrazine were selected as samples for the evaluation of matrix effects. The effect of tap water, river water and soil on the sensitivity of the detection method was evaluated using two newly developed immunoassay methods based on Au@PtNPs-nanobody. The accuracy of the developed method for real samples was also verified using high performance liquid chromatography (HPLC). The solid sample (10 g) was simultaneously extracted with 20 ml of methanol in a vortex mixer for 15 minutes. The mixture was then centrifuged at 4000 rpm for 5 minutes and the supernatant was collected, diluted appropriately and analyzed by HPLC. After confirming that the samples were free of atrazine, atrazine solution was added to the samples so that the final concentrations of atrazine in the samples were 1 μg/mL, 5 μg/mL, and 10 μg/mL, and then the samples were subjected to dc-ELISA. HPLC was also used for validation.
Considering the real samples detection, complex matrix can affect the recognition and binding between antibodies and coating antigens/analytes, which seriously interferes with the performance of the immunoassay and affects the accuracy of the analytical results. Therefore, matrix effects should be minimized or eliminated during sample analysis to ensure the accuracy of the immunoassay method. The simplest method for matrix elimination or reduction is to dilute the sample with the assay buffer. In this study, tap water, river water and soil were selected for matrix effect evaluation. The tap water samples confirmed to be none of atrazine were diluted directly with 1×PBS to a total dilution ratio of 2-, 4-, 8-, and 16-fold, and then different concentrations of atrazine solution were prepared with these obtained buffer solutions, respectively. […] But, tap water samples diluted […] had higher IC50 when compared with assay buffer or other diluted samples. […] Therefore, the 4-fold dilution was selected for the tap water samples. Similarly, river water samples diluted 4-fold and 8-fold had higher IC50 values compared to assay buffer or other diluted samples. […] Therefore, 16-fold dilution was selected for the river water sample (Fig. 4C). Soil samples without atrazine were used as blank samples and extracted with methanol, then diluted with 1×PBS resulting in a total dilution ratio of 10, 20, 40, 60 and 80-fold. Atrazine standard solutions were prepared using the above obtained buffer solutions. […] When the soil matrix was diluted 60 and 80-fold, there was no significant difference between their maximum absorbance and IC50 . Therefore, the 60-fold dilution was selected for the next spike and recovery study. Spiked-recovery validation using both HPLC and dc-ELISA to evaluate the precision of the dc-ELISA. […] Also, the results of the dc-ELISA method were approximately consistent with that of HPLC.

Nanobody-26 = assay: ic-ELISA based on atrazine nanobody (indirect competitive); type: binding, alpaca; settings: for IC50 (Nanobody): coating antigen 2e-BSA; for CR% (Nanobody): cross-reaction = IC50(atrazine)/IC50(analog)
Method: In this study, ic-ELISA was first used to assess the effect of two coating antigens on the sensitivity of the nanobody. The optimal concentrations of nanobody and coating antigen were confirmed by the checkerboard method, and the sensitivity of nanobody was evaluated under optimal conditions. Detailed procedures for sensitivity assessment of nanobody were presented in the Supplementary Material.
Cross-reactivity evaluation was performed using the developed ic-ELISA for atrazine, simazine, terbuthylazine, terbutryn, cyanuric acid, ametryn, melamine, atrazine-2-hydroxy and 2-chloro-4,6-diamino-1,3,5-triazine. The above compounds were prepared into standard solutions at certain concentrations, and the standard inhibition curves were established. The cross-reactions were calculated according to the respective IC50 obtained from the standard inhibition curves and the following formula: Cross-reaction(CR%)=IC50(atrazine)∕IC50(the other structurally similar compound)

SMILES: CCNc1nc(N)nc(Cl)n1 [deisopropylatrazine]
CR% (Au@PtNPs-nanobody) (Au@PtNPs-nanobody probe): less than 7%

SMILES: CCNc1nc(Cl)nc(NC(C)(C)C)n1 [Terbuthylazine]
CR% (Au@PtNPs-nanobody) (Au@PtNPs-nanobody probe): 10.9%
IC50 (Au@PtNPs-nanobody) (Au@PtNPs-nanobody probe): 0.29 µg/mL
IC50 (Nanobody) (Nanobody-26): 0.085 µg/mL
CR% (Nanobody) (Nanobody-26): 72.7%

SMILES: CCNc1nc(Cl)nc(NCC)n1 [Simazine]
CR% (Au@PtNPs-nanobody) (Au@PtNPs-nanobody probe): 6.01%
CR% (Au@PtNPs-nanobody) (Au@PtNPs-nanobody probe; listed as simazine): less than 7%
IC50 (Au@PtNPs-nanobody) (Au@PtNPs-nanobody probe): 0.53 µg/mL
IC50 (Nanobody) (Nanobody-26): 0.18 µg/mL
CR% (Nanobody) (Nanobody-26): 33.6%
CR% (Nanobody) (Nanobody-26; listed as simazine): about 30%

SMILES: Oc1nc(O)nc(O)n1 [Cyanuric acid]
CR% (Au@PtNPs-nanobody) (Au@PtNPs-nanobody probe): < 0.1%
IC50 (Au@PtNPs-nanobody) (Au@PtNPs-nanobody probe): > 100 µg/mL
IC50 (Nanobody) (Nanobody-26): > 100 µg/mL
CR% (Nanobody) (Nanobody-26): < 0.1%

IC50 (Au@PtNPs-nanobody) (Au@PtNPs-nanobody probe): > 100 µg/mL
IC50 (Nanobody) (Nanobody-26): > 100 µg/mL
SMILES: Nc1nc(N)nc(N)n1 [Melamine]
CR% (Au@PtNPs-nanobody) (Au@PtNPs-nanobody probe): < 0.1%
CR% (Nanobody) (Nanobody-26): < 0.1%

SMILES: CCNc1nc(NC(C)C)nc(SC)n1 [Ametryn]
CR% (Au@PtNPs-nanobody) (Au@PtNPs-nanobody probe): 3.55%
IC50 (Au@PtNPs-nanobody) (Au@PtNPs-nanobody probe): 0.90 µg/mL
IC50 (Nanobody) (Nanobody-26): 0.23 µg/mL
CR% (Nanobody) (Nanobody-26): 27.4%
CR% (Nanobody) (Nanobody-26; listed as ametryn): about 30%

SMILES: CCNc1nc(Cl)nc(NC(C)C)n1 [Atrazine]
CR% (Au@PtNPs-nanobody) (Au@PtNPs-nanobody probe): 100%
IC50 (Au@PtNPs-nanobody) (Au@PtNPs-nanobody probe): 0.032 µg/mL
IC50 (Nanobody) (Nanobody-26): 0.062 µg/mL
CR% (Nanobody) (Nanobody-26): 100%

SMILES: CCNc1nc(NC(C)(C)C)nc(SC)n1 [Terbutryn]
CR% (Au@PtNPs-nanobody) (Au@PtNPs-nanobody probe): < 0.1%
CR% (Au@PtNPs-nanobody) (Au@PtNPs-nanobody probe; listed as terbutryn): greater than 10%
IC50 (Au@PtNPs-nanobody) (Au@PtNPs-nanobody probe): > 100 µg/mL
IC50 (Nanobody) (Nanobody-26): > 100 µg/mL
CR% (Nanobody) (Nanobody-26): < 0.1%
CR% (Nanobody) (Nanobody-26; listed as terbutryn): greater than 70%

SMILES: CCNc1nc(NC(C)C)[nH]c(=O)n1 [Atrazine-2-hydroxy]
CR% (Au@PtNPs-nanobody) (Au@PtNPs-nanobody probe): < 0.1%
IC50 (Au@PtNPs-nanobody) (Au@PtNPs-nanobody probe): > 100 µg/mL
IC50 (Nanobody) (Nanobody-26): > 100 µg/mL
CR% (Nanobody) (Nanobody-26): < 0.1%

SMILES: Nc1nc(N)nc(Cl)n1 [2-chloro-4,6-diamino-1,3,5-triazine]
CR% (Au@PtNPs-nanobody) (Au@PtNPs-nanobody probe): 3.42%
IC50 (Au@PtNPs-nanobody) (Au@PtNPs-nanobody probe): 0.93 µg/mL
IC50 (Nanobody) (Nanobody-26): 1.1 µg/mL
CR% (Nanobody) (Nanobody-26): 5.40%
